Measurements published in the CheMixHub viscosity set.

Assay: xn = mol fraction of the nth substance listed

CC(=O)CC(C)=O + CCCC(C)O
298.15 K, 101 kPa
Conditions | viscosity [mPa·s]
x1 = 0.1 | 2.324
x1 = 0.2 | 1.65
x1 = 0.3 | 1.276
x1 = 0.4 | 1.082
x1 = 0.5 | 0.983
x1 = 0.6 | 0.918
x1 = 0.7 | 0.855
x1 = 0.8 | 0.787
x1 = 0.9 | 0.725

CCCCN(CCCC)CCCC + CCCCCC
viscosity [mPa·s], 101 kPa
Conditions | x1 = 0.0982 | x1 = 0.1945 | x1 = 0.3994 | x1 = 0.495 | x1 = 0.5384 | x1 = 0.7924 | x1 = 0.903
303.15 K | 0.3305 | 0.3909 | 0.5434 | 0.623 | 0.6623 | 0.923 | 1.05
313.15 K | 0.289 | 0.3449 | 0.4813 | 0.5536 | 0.588 | 0.8088 | 0.91

Cc1ccc(C(C)C)cc1 + CCCCCC
298.15 K, 101.33 kPa
Conditions | viscosity [mPa·s]
x2 = 0.0316 | 0.768
x2 = 0.0656 | 0.745
x2 = 0.0967 | 0.723
x2 = 0.1908 | 0.662
x2 = 0.2812 | 0.599
x2 = 0.3795 | 0.538
x2 = 0.5183 | 0.474
x2 = 0.6271 | 0.424
x2 = 0.7093 | 0.393
x2 = 0.8209 | 0.349
x2 = 0.9331 | 0.314

CCCCN(CCCC)CCCC + CCCCCCCC
viscosity [mPa·s], 101 kPa
Conditions | x1 = 0.0983 | x1 = 0.1934 | x1 = 0.395 | x1 = 0.4909 | x1 = 0.5915 | x1 = 0.7854 | x1 = 0.897
303.15 K | 0.532 | 0.5833 | 0.7038 | 0.7674 | 0.838 | 0.9861 | 1.079
313.15 K | 0.4675 | 0.5129 | 0.6183 | 0.6727 | 0.734 | 0.8553 | 0.9291

CCCCC(C)O (stereo not drawn) + CCCCCCCCCCCC
298.15 K, 101 kPa
Conditions | viscosity [mPa·s]
x2 = 0.0555 | 3.6
x2 = 0.0999 | 3.24
x2 = 0.1555 | 2.84
x2 = 0.1999 | 2.55
x2 = 0.2554 | 2.24
x2 = 0.2999 | 2.01
x2 = 0.3555 | 1.77
x2 = 0.3998 | 1.6
x2 = 0.4555 | 1.42
x2 = 0.4999 | 1.31
x2 = 0.5554 | 1.19
x2 = 0.5998 | 1.12
x2 = 0.6554 | 1.05
x2 = 0.6999 | 1.02
x2 = 0.7555 | 1
x2 = 0.7997 | 1
x2 = 0.8555 | 1.02
x2 = 0.8998 | 1.04
x2 = 0.9555 | 1.09

CCCCCCc1ccccc1 + CCCCCCCCCCCCCCCC
viscosity [mPa·s], 102 kPa
Conditions | x1 = 0.1344 | x1 = 0.259 | x1 = 0.3742 | x1 = 0.4819 | x1 = 0.5823 | x1 = 0.6747 | x1 = 0.765 | x1 = 0.848 | x1 = 0.9262
293.15 K | 3.12 | 2.85 | 2.63 | 2.43 | 2.25 | 2.11 | 1.98 | 1.86 | 1.77
303.15 K | 2.49 | 2.3 | 2.13 | 1.98 | 1.85 | 1.74 | 1.64 | 1.55 | 1.47
313.15 K | 2.04 | 1.9 | 1.76 | 1.65 | 1.55 | 1.46 | 1.38 | 1.31 | 1.25
323.15 K | 1.7 | 1.59 | 1.49 | 1.4 | 1.32 | 1.25 | 1.18 | 1.13 | 1.08

CCCCN(CCCC)CCCC + CCCCCCCCCCO
viscosity [mPa·s], 101.3 kPa
Conditions | x1 = 0.0952 | x1 = 0.1901 | x1 = 0.2866 | x1 = 0.3816 | x1 = 0.5195 | x1 = 0.6185 | x1 = 0.7198 | x1 = 0.8029 | x1 = 0.9006
303.15 K | 7.192 | 5.845 | 4.754 | 3.874 | 2.91 | 2.358 | 1.928 | 1.658 | 1.378
313.15 K | 5.659 | 4.596 | 3.721 | 3.026 | 2.288 | 1.892 | 1.586 | 1.388 | 1.175

CCCCOC(=O)c1ccccc1C(=O)OCCCC + CCCCCCCCCCO
303.15 K, 101.33 kPa
Conditions | viscosity [mPa·s]
x1 = 0.1004 | 8.572
x1 = 0.1995 | 8.061
x1 = 0.3035 | 7.851
x1 = 0.4004 | 7.91
x1 = 0.4902 | 8.075
x1 = 0.5977 | 8.479
x1 = 0.6985 | 9.095
x1 = 0.7997 | 9.985
x1 = 0.8948 | 11.18

O=C1c2ccccc2C(=O)C1(O)O + CCCCCCCCCO
101.3 kPa, x1 = 0.25
Conditions | viscosity [mPa·s]
293.15 K | 38.14
298.15 K | 27.87
303.15 K | 21.73
308.15 K | 17.37
313.15 K | 13.74
318.15 K | 11.01
323.15 K | 9.139

CCCCN(CCCC)CCCC + CCCCCCCCO
viscosity [mPa·s], 101.3 kPa
Conditions | x1 = 0.0904 | x1 = 0.1906 | x1 = 0.2864 | x1 = 0.4192 | x1 = 0.5184 | x1 = 0.6196 | x1 = 0.7144 | x1 = 0.8124 | x1 = 0.8987
303.15 K | 5.287 | 4.464 | 3.765 | 2.935 | 2.43 | 2.025 | 1.723 | 1.487 | 1.33
313.15 K | 3.767 | 3.171 | 2.698 | 2.185 | 1.872 | 1.619 | 1.424 | 1.25 | 1.128

CCCCOC(=O)c1ccccc1C(=O)OCCCC + CCCCCCCCO
303.15 K, 101.33 kPa
Conditions | viscosity [mPa·s]
x1 = 0.1003 | 5.9
x1 = 0.2011 | 5.876
x1 = 0.3001 | 6.078
x1 = 0.3996 | 6.444
x1 = 0.5 | 6.901
x1 = 0.5999 | 7.6
x1 = 0.6958 | 8.396
x1 = 0.7975 | 9.53
x1 = 0.898 | 11.05

C=CC#N + CCCCCCCO
viscosity [mPa·s], 101.33 kPa
Conditions | x1 = 0.1047 | x1 = 0.206 | x1 = 0.3057 | x1 = 0.4142 | x1 = 0.5106 | x1 = 0.6206 | x1 = 0.7044 | x1 = 0.8027 | x1 = 0.9033
298.15 K | 4.015 | 2.967 | 2.212 | 1.627 | 1.238 | 0.891 | 0.705 | 0.54 | 0.425
303.15 K | 3.469 | 2.587 | 1.958 | 1.441 | – | 0.815 | 0.652 | 0.508 | 0.403
308.15 K | 3 | 2.273 | 1.73 | 1.296 | 1.013 | 0.75 | 0.605 | 0.478 | 0.383

CCCCN(CCCC)CCCC + CCCCCCCO
viscosity [mPa·s], 101.3 kPa
Conditions | x1 = 0.1067 | x1 = 0.1877 | x1 = 0.2841 | x1 = 0.4197 | x1 = 0.5183 | x1 = 0.619 | x1 = 0.7191 | x1 = 0.8008 | x1 = 0.89
303.15 K | 4.133 | 3.677 | 3.178 | 2.558 | 2.191 | 1.881 | 1.644 | 1.482 | 1.328
313.15 K | 3.033 | 2.69 | 2.355 | 1.956 | 1.709 | 1.497 | 1.33 | 1.217 | 1.1
